Earlier results on one compound are cited in patent publication US7446204B2, “Amino substituted aryloxybenzylpiperidine derivatives” (H. Lundbeck A/S, priority 2004, dated 2008).

Like-named read-outs stand apart in the source and are kept apart here.

The target of data set [1] is T1, MCH1 receptor (Cavia porcellus, UniProt H0VKT7).
T1 construct: host or cells: living guinea pigs (endogenous receptor)
The note with it: guinea pig maternal-separation vocalization; Borowsky et al., Nature Medicine 2002.

Data set [2] addresses T2, MCH1 receptor (Rattus norvegicus, UniProt P97639).
T2 construct: host or cells: living rats (endogenous receptor)
The settings on record: rat social interaction; Borowsky et al., Nature Medicine 2002.

Data set [3] has as its target T2, MCH1 receptor. The note with it: rat forced-swim; Borowsky et al., Nature Medicine 2002.

T2 sequence (P97639 whole entry): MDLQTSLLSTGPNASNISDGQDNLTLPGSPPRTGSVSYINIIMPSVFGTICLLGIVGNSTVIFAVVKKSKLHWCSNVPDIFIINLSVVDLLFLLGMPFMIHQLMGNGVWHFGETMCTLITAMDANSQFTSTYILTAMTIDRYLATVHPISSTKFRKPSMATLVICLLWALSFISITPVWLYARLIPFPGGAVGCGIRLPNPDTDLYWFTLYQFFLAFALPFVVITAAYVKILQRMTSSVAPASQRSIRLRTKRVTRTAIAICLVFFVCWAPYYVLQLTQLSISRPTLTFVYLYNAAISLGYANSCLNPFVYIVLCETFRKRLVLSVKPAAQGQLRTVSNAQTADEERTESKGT
T1 sequence (H0VKT7 1-355): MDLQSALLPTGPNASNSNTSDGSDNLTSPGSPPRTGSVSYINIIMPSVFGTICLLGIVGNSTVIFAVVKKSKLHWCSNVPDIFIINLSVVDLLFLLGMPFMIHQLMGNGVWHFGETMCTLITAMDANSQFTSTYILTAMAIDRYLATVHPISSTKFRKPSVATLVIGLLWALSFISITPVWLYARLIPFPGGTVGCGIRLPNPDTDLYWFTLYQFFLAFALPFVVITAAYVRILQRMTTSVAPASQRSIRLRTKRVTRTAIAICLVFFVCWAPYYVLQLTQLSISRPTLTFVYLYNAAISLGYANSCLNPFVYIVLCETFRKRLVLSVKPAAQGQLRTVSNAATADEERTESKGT

`COCC1=C(C(=O)OC)[C@H](c2ccc(F)c(F)c2)N(C(=O)NCCCN2CCC(c3cccc(NC(C)=O)c3)CC2)C(=O)N1` [SNAP-7941]: the “profile in behavioral model of depression and/or anxiety” value at MCH1 receptor [1] is “profile similar to clinically used anti-depressants and anxiolytics”; on MCH1 receptor [2], “profile similar to clinically used anti-depressants and anxiolytics”; at MCH1 receptor [3], “profile similar to clinically used anti-depressants and anxiolytics”.
